Results published in PubChem BioAssay (NCI).
Several values for one entry are separate records, joined by “and”; a condition that tells them apart may be missing. Identical values can stand only once.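 Method: 48-hour compound exposure of cells in 96-well plates, five concentrations, linear interpolation of endpoints. GI50 = concentration required for 50% inhibition of growth. TGI: concentration producing complete growth inhibition.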

tested on: CAKI-1 renal; assay: NCI-60 cell line screen, 48 h

Compound | TGI | GI50
COC(=O)C1(C(C)C)CCc2c(OC)ccc(OC)c2C1=O (stereo not given) | > 100 µM | 
Cc1ccc(Cl)c2c(N=Nc3ccccc3[N+](=O)[O-])c(O)[nH]c12 | > 100 µM | 
FC(F)(F)c1cccc(Nc2nc(-c3ccccc3)nc3ncccc23)c1 | 18.7 µM | 3.86 µM
O=C(Nc1ccccc1)c1c(O)[nH]c(=S)[nH]c1=O | 58.1 µM and 127 µM | 28 µM
OC1CSSC1Cn1cnc2c(Nc3ccc(OCc4cccc(F)c4)c(Cl)c3)ncnc21 (stereo not given) | 6.85 µM | 2.2 µM
C=CCOc1ccc2c(C)cc(=O)oc2c1C | > 100 µM | 
Nc1c(C(=O)c2cccc(CCS(N)(=O)=O)c2)cnn1-c1ccc(F)cc1 | > 25 µM | > 25 µM
COC(=O)c1ccccc1NC(=O)C(=O)Cc1nc2c3c(ccc2[nH]c1=O)C(=O)c1ccccc1C3=O | > 100 µM | 
COc1cc2cc(OC)c3cc4c(cc3c2c(OC)c1OC)OCO4 | > 100 µM | 
O=C(CC(=O)c1cccc2ccccc12)C(=O)Nc1ccc(Cl)cc1 | > 100 µM | 
OCc1cc2ccccc2c2c3c(ccc12)OCO3 | 188 µM | 29.3 µM
CCCCCCCCCCCCCC(=O)OC(/C=C/C(C)C)C(O)C(O)C(OC)C(=O)NC1CCCCN(C)C1=O (stereo not given) | 7.51 µM | 
CC1(C(=O)O)CCC[C@@]2(C)C1CC[C@@]1(C)c3cocc3CCC21 (stereo not given in full) | > 100 µM | 
C[C@@H](Oc1cc(-n2cnc3ccc(CN4CCN(C)CC4)cc32)sc1C(N)=O)c1ccccc1C(F)(F)F | 15.1 µM and > 10 µM | 0.337 µM and 0.222 µM
CCN(CC)CCSc1c2ccccc2nc2cc(NCC(=O)Nc3ccccc3-c3ccccc3NC(=O)CNc3ccc4c(SCCN(CC)CC)c5ccccc5nc4c3)ccc12 | > 100 µM | 
Cc1ccsc1C(=S)Nc1ccc(Cl)c(/C=N/OC(C)(C)C)c1 | > 100 µM | 
CC(C)=CCC\C(C)=C/C=C/C(C)=C\C=C\C(C)=C/C=C/C=C(C)\C=C\C=C(C)/C=C/C=C(/C)CCC=C(C)C | > 100 µM | 
CC1(C)C(=O)/C=C\C(=O)C(C)(C)C2=CC=C(O2)C(C)(C)C(=O)/C=C\C(=O)C(C)(C)C2=CC=C1O2 | > 100 µM | 
NC(=O)NO.O.O.O.O.O.O.O.O.O.O.O.[Ge].[Ge].[Ge].[Ge].[Ge].[O]=[Ge].[O]=[Ge].[O]=[Ge].[O]=[Ge].[O]=[Ge][OH] | > 100 µM | 
CN(C)C(=S)N=C(Nc1ccccc1)Nc1ccccc1 | > 100 µM | 
NC(N)=NS(=O)(=O)c1ccc(Nc2c3ccccc3nc3c(C(=O)NCCO)cccc23)cc1 |  | 22.8 µM
COc1cccc(C2c3cc4c(cc3OC(C)(N3CCCC3)C2C)OCO4)c1O (stereo not given) | 28.7 µM | 
COC(=O)CC[N+]1=CCC(c2ccccc2)(c2ccccc2)O1 | > 100 µM | 
O=C1NC(=NCCc2cccc(F)c2)S/C1=C\c1ccc2ncccc2c1 | > 25 µM | 2.43 µM
COc1cc(/C=N\NC(=O)CN2CCN(c3cc4c(cc3F)c(=O)c(C(=O)N/N=C/c3cc(OC)c(OC)c(OC)c3)cn4C3CC3)CC2)cc(OC)c1OC | > 100 µM | > 50.5 µM

tested on: SNB-19 CNS; assay: NCI-60 cell line screen, 48 h

Compound | TGI | GI50 [µM]
COc1ccc(CC2c3cc4c(cc3CCN2C)OCO4)c(C=O)c1OC (stereo not given) | > 100 µM | 
CN1CCCCC1CCN1c2ccccc2Sc2ccc(Cl)cc21 (stereo not given) | 21.5 µM | 6.7
C=C(C)C(OC)C(O)CC1(C)CC(O)CC(C)(C2CCC3OC(C4(C)CCC(Br)C(C)(C)O4)CCC3(C)O2)O1 (stereo not given) | 39 µM | 3.28
O=C(Nc1nc2ccc([N+](=O)[O-])cc2s1)C(=O)C(C1OC(=O)c2ccccc21)[N+](=O)[O-] (stereo not given) | > 100 µM | 
Cc1cc(-c2nc(C(=O)Nc3cc4oc(N5CCOCC5)nc4nc3N3CC[C@@H](O)C3)co2)ccn1 | > 100 µM | 78.8
COc1cc2c(cc1OCCCCN1CCN(CC(=O)Nc3ccc(Cl)cc3C(=O)c3ccccc3Cl)CC1)N=CC1CCCN1C2=O (stereo not given) | 1.15 µM | 0.36
O=C(CCc1nc(=S)[nH][nH]1)Nc1ccc(Cl)c(Cl)c1 | > 100 µM | 
COC(=O)C1(C(C)C)CCc2c(OC)ccc(OC)c2C1=O (stereo not given) | > 100 µM | 
Cc1ccc(Cl)c2c(N=Nc3ccccc3[N+](=O)[O-])c(O)[nH]c12 | > 100 µM | 
FC(F)(F)c1cccc(Nc2nc(-c3ccccc3)nc3ncccc23)c1 | 37.3 µM | 7.68
O=C(Nc1ccccc1)c1c(O)[nH]c(=S)[nH]c1=O | 118 µM and > 250 µM | 40.7
OC1CSSC1Cn1cnc2c(Nc3ccc(OCc4cccc(F)c4)c(Cl)c3)ncnc21 (stereo not given) | 7.22 µM | 2.14
C=CCOc1ccc2c(C)cc(=O)oc2c1C | > 100 µM | 
Nc1c(C(=O)c2cccc(CCS(N)(=O)=O)c2)cnn1-c1ccc(F)cc1 | > 25 µM | > 25
